According to patent publication US20120149724A1, “MODULATING ENDOGENOUS BETA-ENDORPHIN LEVELS” (THE GENERAL HOSPITAL CORPORATION, priority 2009, published 2012):
Entries after “also recorded” stand apart in the source; their conditions may differ.

Assays:
[1] = system: plasma β-endorphin; test: plasma β-endorphin by radioimmunoassay over a tail radiation or mock regimen; assay type: in vivo, mice
Source text: FIG. 4C illustrates the plasma beta-endorphin fluctuations in the C57BL/6 mice as described in FIGS. 4A and 4B. To obtain the data shown in FIG. 4C, blood was drawn once per week over the 6 week regimen, and for the 2 weeks following. The blood was drawn in the morning prior to the radiation treatment for that day. FIG. 4C uses data obtained by C57BL/6 male mice, 10 mice per treatment group. Mock exposed mice remained stable throughout the regimen.
For all experiments, mice used were in a C57BL/6 background. In all experiments wild type mice were used, and in select experiments mice containing homozygous deletion of the p53 gene (p53−/−) were used. All mice were 8 weeks old at the beginning of each experiment. […] Blood Draws and Preparation for Radioimmunoassay Mice were placed in a standard restrainer. A 30-gauge needle was inserted into the tail vein, and 200 uL of blood was collected in EDTA microvette tubes containing 5 TIU aprotinin. Tubes were maintained on ice at all times. Tubes were spun at 3500 rpm at 4° C. for 20 minutes. Plasma was isolated for β-endorphin measurement by commercially available radioimmunoassay (Phoenix Pharmaceuticals). […]

[2] = system: UV-exposed C57BL/6 mice; test: pain thresholds (von Frey and hot plate) over daily low-dose UVB exposure; assay type: in vivo; conditions: UVB 50 mJ/cm2/day, 5 days/week for 6 weeks, 10 mg/kg ip 15 minutes before testing
Method: To obtain the data shown in FIGS. 7A, 7B and 7C, eight-week-old male C57BL/6 mice were dorsally depilated and either exposed to 50 mJ/cm2/day or mock exposed 5 days/week for 6 weeks. Blood was drawn prior to, once weekly during, and once weekly for 2 weeks following the end of the regimen for β-endorphin measurement. In addition, pain thresholds in both the von Frey and hot plate assay were measured prior to, twice weekly during, and twice weekly for 2 weeks following the end of the regimen. One subgroup of UV-exposed mice and one subgroup of mock-treated mice were injected with naloxone (10 mg/kg, ip) and another subgroup of UV-exposed mice and mock-treated mice were injected with saline (ip) 15 minutes prior to each pain threshold testing. Pain threshold measurements were taken on 2 non-consecutive days and on a different day from the blood draws each week. […] Error bars indicate +/−SEM. […] Error bars indicate +/− standard deviation. […]
Eight-week-old male C57BL/6 mice were dorsally depilated and either exposed to 50 mJ/cm2/day or mock exposed 5 days/week for 6 weeks. […] In addition, pain thresholds in both the von Frey and hot plate assay were measured prior to, twice weekly during, and twice weekly for 2 weeks following the end of the regimen. […]

C=CCN1CC[C@]23c4c5ccc(O)c4O[C@H]2C(=O)CC[C@@]3(O)[C@H]1C5 [naloxone]
change in plasma beta-endorphin levels ([1]; mock-exposed mice, 10 mg/kg): no increase in plasma beta-endorphin levels | change in plasma β-endorphin ([1]; tail-irradiated mice, 10 mg/kg before behavioral testing, over the radiation regimen): most dramatic increase in plasma β-endorphin; also recorded: elevations in systemic beta-endorphin over and above the elevation caused by tail radiation alone | effect on UV-induced changes in pain thresholds / opioid-mediated phenotypes [2]: naloxone-reversible; also recorded: reversed
